The values that follow are results of earlier work, collected in patent publication EP0136475A2, “Novel growth hormone-releasing peptides and method of treating mammals therewith” (The Administrators of The Tulane University Educational Fund, priority 1983, dated 1985).

No end group written: not given here.

This data set relates to rat anterior pituitary.

As to “hp GRF(1-29)-NH2: a synthetic amidated fragment of the natural hp GRF (YADAIFTNSYRKVLGQLSARKLLQDIMSR-NH2; UniProt P01286 32-60, looked up, fragment)”, the intrinsic biological activity result (reported by Spiess et al.) was “full intrinsic biological activity”.
In the case of “hpGRF: growth hormone-releasing factors (GRF) of human pancreatic islet tumor origin (YADAIFTNSYRKVLGQLSARKLLQDIMSRQQGESNQERGARARL-NH2; ends and bridges not checked; UniProt P01286 32-75, looked up)”, the “growth hormone(GH)-releasing activity” value (rat anterior pituitary in vitro and in vivo) was “possess growth hormone(GH)-releasing activity”.
